For experiment [1], the target named is T1, SETD2(1434-1711) (Homo sapiens, UniProt Q9BYW2).
T1 construct: SETD2 (1434-1711) Assay; catalogue N/A
T1 sequence (Q9BYW2 1434-1711): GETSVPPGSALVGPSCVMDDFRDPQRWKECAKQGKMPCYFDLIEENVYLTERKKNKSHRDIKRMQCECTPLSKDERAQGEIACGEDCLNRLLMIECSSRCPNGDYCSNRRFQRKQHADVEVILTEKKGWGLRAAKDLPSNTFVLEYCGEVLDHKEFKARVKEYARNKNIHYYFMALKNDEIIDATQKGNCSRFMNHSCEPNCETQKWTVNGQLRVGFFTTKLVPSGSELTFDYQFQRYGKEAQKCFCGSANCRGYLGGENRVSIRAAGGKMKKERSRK
The experiment is described as follows: SETD2 (1434-1711) assay. It counts as biochemical. To be noted: read-out: SETD2 (1434-1711).

The subject of experiment [2] is H3K36me3 in A549 cells. The experiment is described as follows: In-Cell Western (ICW) assay of SETD2 inhibitors (A549 assay). Format: cell-based, human. To be noted: A549 cells, read-out: SETD2 A549. The method in brief: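 H3K36me3 In-Cell Western: cells exposed to compound for 3 days at 4,000 cells/well, 37° C. DRAQ5 (1:1000) marked cell number, with 700/800-channel Licor read-out.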

SMILES strings stand for the structures. Read-outs that look alike come from different tables or passages of the source. Where only a bound is given, the exact number is not on record here.

With `Cc1ccc(F)c2cc(C(=O)NC3CCCN(CCC(=O)N(C)C)C3)[nH]c12` (stereo not shown) [compound 378], the IC50 is above 10000 nM in experiment [1] and above 2000 nM in experiment [2].

Take `Cc1ccc(F)c2cc(C(=O)NC3CCCC(c4cncnc4)C3)[nH]c12` (stereo not shown) [compound 379]: the IC50 was above 10000 nM in experiment [1] and above 2000 nM in experiment [2].

On to `Cc1ccc(F)c2cc(C(=O)NC3CCCC(c4cncnc4)C3)[nH]c12` (stereo not shown) [compound 380], for which the IC50 was above 10000 nM in experiment [1] and above 2000 nM in experiment [2].

For `CC(=O)N1CCN(C2CCC(NC(=O)c3cc4c(F)ccc(C)c4[nH]3)CC2)CC1` (stereo not shown) [compound 383], the IC50 in experiment [1] was above 10000 nM; in experiment [2], above 2000 nM.

For `CNC(=O)CN1CCCC(NC(=O)c2cc3c(F)ccc(C)c3[nH]2)C1` (stereo not shown) [compound 384], the IC50 is above 10000 nM in experiment [1] and above 2000 nM in experiment [2].

`CNC(=O)CCN1CCCC(NC(=O)c2cc3c(F)ccc(C)c3[nH]2)C1` (stereo not shown) [compound 386]: the figures for the IC50 in experiment [1] and in experiment [2] were above 10000 nM and above 2000 nM, respectively.

For `Cc1ccc(F)c2cc(C(=O)NC3CCCC(N4CCCN(C)C(=O)C4)C3)[nH]c12` (stereo not shown) [compound 387], the IC50 was above 10000 nM in experiment [1] and above 2000 nM in experiment [2].

Turning to `Cc1ccc(F)c2cc(C(=O)NC3CCCC(N4CCCOCC4)C3)[nH]c12` (stereo not shown) [compound 388], the values for the IC50 in experiment [1] and in experiment [2] were above 10000 nM and above 2000 nM, respectively.

As for `CC(=O)N(C)CCCN1CCCC(NC(=O)c2cc3c(F)ccc(C)c3[nH]2)C1` (stereo not shown) [compound 389], the IC50 in experiment [1] was above 10000 nM; in experiment [2], above 2000 nM.

In the case of `Cc1ccc(F)c2cc(C(=O)Nc3cccc4c(N5CCN(C)CC5)[nH]nc34)[nH]c12` [compound 391], the IC50 amounted to 200 nM in experiment [1] and 2000 nM in experiment [2] (Homo sapiens).

On to `Cc1ccc(F)c2cc(C(=O)Nc3cccc(-c4ccn(C)n4)c3)[nH]c12` [compound 394], for which the IC50 in experiment [1] worked out at 200 nM; in experiment [2] (Homo sapiens), 2100 nM.

With `Cc1ccc(F)c2cc(C(=O)Nc3cccc(C4(N)CC4)c3)[nH]c12` [compound 395], the IC50 is 100 nM in experiment [1] and 2200 nM in experiment [2].

Regarding `Cc1cccc2cc(C(=O)Nc3cccc(N4CCN(C(=O)CN)CC4)c3)[nH]c12` [compound 396], the IC50 in experiment [1] stood at 300 nM; in experiment [2], 2300 nM.

With `Cc1ccc(F)c2cc(C(=O)Nc3cccc(-c4cn[nH]c4N)c3)[nH]c12` [compound 397], the IC50 in experiment [1] worked out at 500 nM; in experiment [2] (Homo sapiens) it was 2400 nM.

Consider `CCc1cc(NC(=O)c2cc3c(F)ccc(C)c3[nH]2)cc(N2CCC(N(C)C)CC2)c1` [compound 398], for which the values for the IC50 in experiment [1] and in experiment [2] were 70 nM and 2400 nM, respectively.

As to `Cc1ccc(F)c2cc(C(=O)Nc3cccc(S(C)(=O)=O)c3)[nH]c12` [compound 399], the figures for the IC50 in experiment [1] and in experiment [2] were 1800 nM and 2400 nM, respectively.

For the compound `Cc1ccc(F)c2cc(C(=O)NC(c3nc4ccccn4c3C)C3CC3)[nH]c12` (stereo not shown) [compound 400], the IC50 in experiment [1] stood at 300 nM; in experiment [2] it was 2400 nM.

`Cc1ccc(F)c2cc(C(=O)Nc3cc(N4CCN(C)CC4)c4cnccc4c3)[nH]c12` [compound 401]: the IC50 is 30 nM in experiment [1] and 2400 nM in experiment [2].

On to `Cc1cc(-c2ccc(CN3CCOCC3)nc2)cnc1C(NC(=O)c1cc2cccc(C)c2[nH]1)C1CC1` (stereo not shown) [compound 402], for which the IC50 came to 300 nM in experiment [1] and 2500 nM in experiment [2].

In the case of `Cc1ccc(F)c2cc(C(=O)NC3CCCc4cnccc43)[nH]c12` (stereo not shown) [compound 403], the results for the IC50 in experiment [1] and in experiment [2] were 2500 nM and 2700 nM, respectively.

With `Cc1cc(-c2ncccn2)cnc1C(NC(=O)c1cc2cccc(C)c2[nH]1)C1CC1` (stereo not shown) [compound 404], the IC50 in experiment [1] was found to be 300 nM; in experiment [2] (Homo sapiens), 2800 nM.

Turning to `CCN(CC)CCS(=O)(=O)N1CCN(c2cccc(NC(=O)c3cc4cccc(C)c4[nH]3)c2)CC1` [compound 405], the IC50 amounted to 400 nM in experiment [1] and 2800 nM in experiment [2].

For the compound `Cc1cc(-c2cccnc2)cnc1C(NC(=O)c1cc2cccc(C)c2[nH]1)C1CC1` (stereo not shown) [compound 406], the IC50 in experiment [1] is 300 nM; in experiment [2] it was 2800 nM.

Turning to `Cc1ccc(N2CCN(C)CC2)cc1NC(=O)c1cc2c(F)ccc(C)c2[nH]1` [compound 407], the values for the IC50 in experiment [1] and in experiment [2] were 300 nM and 2800 nM, respectively.

In the case of `Cc1cccnc1C(Cc1ccccc1)NC(=O)c1cc2cccc(C)c2[nH]1` (stereo not shown) [compound 408], the IC50 in experiment [1] worked out at 400 nM; in experiment [2] (Homo sapiens), 2900 nM.

`Cc1ccc(F)c2cc(C(=O)Nc3ccc4cnc(CN5CCN(C)CC5)cc4c3)[nH]c12` [compound 409]: the values for the IC50 in experiment [1] and in experiment [2] were 100 nM and 3000 nM, respectively.

With `Cc1ccc(F)c2cc(C(=O)Nc3cncc(N4CCN(C)CC4)c3)[nH]c12` [compound 410], the IC50 in experiment [1] was determined as 700 nM; in experiment [2], 3000 nM.

In the case of `Cc1ccc(F)c2cc(C(=O)Nc3cccc(N4C5CCC4C(=O)N(C)C5)c3)[nH]c12` (stereo not shown) [compound 411], the IC50 in experiment [1] was 800 nM; in experiment [2] it was 3000 nM.

For `Cc1cc(C(=O)NC2CCN(C)CC2)cnc1C(NC(=O)c1cc2c(F)ccc(C)c2[nH]1)C1CC1` (stereo not shown) [compound 412], the IC50 in experiment [1] was determined as 100 nM; in experiment [2] it was 3100 nM.

Regarding `Cc1ccc(F)c2cc(C(=O)Nc3cccc(N4CCC(NCCN)CC4)c3)[nH]c12` [compound 413], the IC50 in experiment [1] was determined as 30 nM; in experiment [2], 3100 nM.

In the case of `Cc1cc(CCN2CCN(C)CC2)cnc1C(CCc1ccccc1)NC(=O)c1cc2c(F)ccc(C)c2[nH]1` (stereo not shown) [compound 414], the IC50 in experiment [1] was found to be 80 nM; in experiment [2], 3200 nM.

`Cc1ccc(F)c2cc(C(=O)Nc3cccc4c(N5CCC(N(C)C)CC5)[nH]nc34)[nH]c12` [compound 415]: the results for the IC50 in experiment [1] and in experiment [2] (Homo sapiens) were 100 nM and 3200 nM, respectively.

On to `Cc1ccc(F)c2cc(C(=O)Nc3ccc4nc(NC5CCNCC5)ncc4c3)[nH]c12` [compound 416], for which the IC50 in experiment [1] came out at 40 nM; in experiment [2] (Homo sapiens), 3300 nM.

`Cc1ccc(F)c2cc(C(=O)Nc3cccc(N4CCN(C(C)c5ccccc5)CC4)c3)[nH]c12` (stereo not shown) [compound 417]: the IC50 in experiment [1] is 900 nM; in experiment [2], 3400 nM.

Consider `Cc1ccc(F)c2cc(C(=O)Nc3cccc(CCN)c3)[nH]c12` [compound 418], for which the IC50 was found to be 100 nM in experiment [1] and 3400 nM in experiment [2].

As to `Cc1cccc2cc(C(=O)NC(c3ncccc3Cl)C3CC3)[nH]c12` (stereo not shown) [compound 419], the IC50 in experiment [1] came to 800 nM; in experiment [2] (Homo sapiens), 3400 nM.

Regarding `Cc1cccnc1C(CCC(=O)N1CCOCC1)NC(=O)c1cc2cccc(C)c2[nH]1` (stereo not shown) [compound 420], the IC50 in experiment [1] was determined as 2400 nM; in experiment [2], 3600 nM.

As for `Cc1ccc(F)c2cc(C(=O)Nc3cccc(CN4CCN(C)CC4)c3)[nH]c12` [compound 421], the IC50 in experiment [1] worked out at 400 nM; in experiment [2], 3600 nM.

As for `Cc1ccc(F)c2cc(C(=O)Nc3cccc(N4C5COCC4C5)c3)[nH]c12` [compound 422], the IC50 in experiment [1] is 1500 nM; in experiment [2], 3700 nM.

As to `Cc1cc(C2CCC(NC(=O)Cc3cccnc3)CC2)cnc1C(NC(=O)c1cc2cccc(C)c2[nH]1)C1CC1` (stereo not shown) [compound 423], the IC50 in experiment [1] turned out to be 600 nM; in experiment [2], 3800 nM.

Take `Cc1ccc(F)c2cc(C(=O)NC(c3nn4ccccc4c3C)C3CC3)[nH]c12` (stereo not shown) [compound 424]: the figures for the IC50 in experiment [1] and in experiment [2] were 700 nM and 3800 nM, respectively.

For the compound `Cc1ccc(F)c2cc(C(=O)Nc3cccc(C4CCCN4)c3)[nH]c12` (stereo not shown) [compound 425], the figures for the IC50 in experiment [1] and in experiment [2] were 300 nM and 3900 nM, respectively.

In the case of `Cc1cc(-c2ccc(N)nc2)cnc1C(NC(=O)c1cc2cccc(C)c2[nH]1)C1CC1` (stereo not shown) [compound 426], the values for the IC50 in experiment [1] and in experiment [2] were 400 nM and 3900 nM, respectively.

`Cc1cccc2cc(C(=O)Nc3ccc4ncc(CN(C)C)n4c3)[nH]c12` [compound 427]: the figures for the IC50 in experiment [1] and in experiment [2] were 400 nM and 4000 nM, respectively.

`Cc1ccc(F)c2cc(C(=O)Nc3cccc(-c4ncc[nH]4)c3)[nH]c12` [compound 428]: the IC50 in experiment [1] was 1000 nM; in experiment [2] (Homo sapiens), 4100 nM.

Regarding `Cc1cccc2cc(C(=O)Nc3cccc(N4CCN(S(=O)(=O)C5CCC(N)CC5)CC4)c3)[nH]c12` (stereo not shown) [compound 429], the IC50 in experiment [1] came to 100 nM; in experiment [2] (Homo sapiens) it was 4300 nM.

Consider `Cc1cc(OCC(O)CNCc2cccnc2)cnc1C(NC(=O)c1cc2cccc(C)c2[nH]1)C1CC1` (stereo not shown) [compound 430], for which the values for the IC50 in experiment [1] and in experiment [2] were 600 nM and 4400 nM, respectively.

Take `C=Cc1ccc(C)c2[nH]c(C(=O)NC(CCC(=O)N3CCOCC3)c3ncccc3C)cc12` (stereo not shown) [compound 431]: the IC50 in experiment [1] was 2100 nM; in experiment [2], 4400 nM.

`Cc1c(C#N)ccnc1C(NC(=O)c1cc2c(F)ccc(C)c2[nH]1)C1CC1` (stereo not shown) [compound 432]: the IC50 in experiment [1] was 700 nM; in experiment [2] (Homo sapiens), 4500 nM.

Take `Cc1ccc(F)c2cc(C(=O)Nc3cccc(N4CCC(NCc5cnc[nH]5)CC4)c3)[nH]c12` [compound 433]: the IC50 amounted to 30 nM in experiment [1] and 4600 nM in experiment [2] (Homo sapiens).

With `Cc1cccnc1C(CCC(=O)N1CCC(O)CC1)NC(=O)c1cc2cccc(C)c2[nH]1` (stereo not shown) [compound 434], the figures for the IC50 in experiment [1] and in experiment [2] were 4300 nM and 4600 nM, respectively.

For the compound `Cc1cc(CCN2CCN(C)CC2)cnc1C(NC(=O)c1cc2cccc(C)c2[nH]1)C1CC1` (stereo not shown) [compound 435], the figures for the IC50 in experiment [1] and in experiment [2] (Homo sapiens) were 700 nM and 4700 nM, respectively.

`Cc1ccc(F)c2cc(C(=O)Nc3cccc(N4CC5CCC(C4)C5N(C)C)c3)[nH]c12` (stereo not shown) [compound 436]: the IC50 in experiment [1] amounted to 300 nM; in experiment [2], 4700 nM.

The values are drawn from patent US12116358B2, “Substituted indoles and methods of use thereof” (EPIZYME, INC., priority 2018, dated 2024).
